From PubChem BioAssay AID1322 (NMMLSC, 2008)
Calls of active or inactive are those of the source. No rule for the calls is given here.

Target: Bcl-2-like protein 1 (Homo sapiens) (UniProt Q07817)
Assay: Bcl-XL binding to Bim peptide disruption – biochemical, multiplexed, bead flow cytometry, human Bcl-XL, dose response (AID 1322); as to inhibition: test concentration not given here
Settings: Bead-based flow cytometry, MCF; for inhibition: hits give high values

Chain of Bcl-2-like protein 1 (Homo sapiens) (Q07817 whole entry, looked up): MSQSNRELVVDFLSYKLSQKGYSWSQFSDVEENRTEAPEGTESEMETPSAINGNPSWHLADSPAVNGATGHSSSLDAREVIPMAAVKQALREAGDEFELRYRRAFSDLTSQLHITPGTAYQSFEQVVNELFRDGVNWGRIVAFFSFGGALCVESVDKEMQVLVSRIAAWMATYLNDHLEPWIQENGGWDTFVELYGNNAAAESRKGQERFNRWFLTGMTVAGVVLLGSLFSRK

Row | SMILES | inhibition | also measured
1 | COc1ccc(NC(=O)c2ccc3c(c2)NC(=O)CS3)cc1S(=O)(=O)Nc1ccc(Br)cc1 | inactive | –
2 | Cc1ccc(NC(=O)C/C(N)=N/OC(=O)c2ccccc2)cc1 | inactive | –
3 | COc1ccc(/C=C/C(=O)Nc2sc(Cc3ccccc3)c(C)c2C(N)=O)cc1 | inactive | –
4 | CNC(CC(=O)c1ccc([N+](=O)[O-])cc1)C(Cl)(Cl)Cl (centres undefined) | – | outcome: inactive
5 | Cc1cc(NC(=O)CCCC(=O)N(CC(=O)NC2CCCCC2)c2ccccc2)no1 | inactive | –
6 | CC(C)=C1C(=O)NN(c2ccc(C)c(Cl)c2)C1=O | inactive | –
7 | CN(C)[C@@H]1C(=O)C(C(=O)NCN2CCCC2)=C(O)[C@@]2(O)C(=O)C3=C(O)c4c(O)cccc4[C@@](C)(O)C3CC12 (some centres undefined) | inactive | –
8 | O=C(NC1=C(Nc2ccc(Cl)cc2)C(=O)c2ccccc2C1=O)c1ccccc1 | inactive | –
9 | Cc1nnc(Sc2cc(NCCO)c([N+](=O)[O-])c3nonc23)s1 | inactive | –
10 | Cc1ccc(C)c(N2CCN(C(=S)Nc3ccc4nc(N5CCN(C)CC5)cc(C)c4c3)CC2)c1 | inactive | –
11 | O=[N+]([O-])c1ccc(N/N=C/c2ccc(O)c(O)c2O)c(S(=O)(=O)N2CCOCC2)c1 | inactive | –
12 | O=C(O)c1ccccc1NSc1ccccc1[N+](=O)[O-] | – | outcome: inactive
13 | COc1ccccc1-n1c(-c2ccccc2)c[nH]c1=S | inactive | –
14 | Cc1ccc(-c2cc(-c3ccc(F)cc3)c(C#N)c(N)n2)o1 | inactive | –
15 | COc1ccc(N2CCN(C(=O)c3cc(=O)[nH]c4ccccc34)CC2)cc1 | inactive | –
16 | CCOc1cc(CNc2ccc(N(C)C)cc2)cc(Br)c1OCC(=O)NC(C)(C)C | inactive | –
17 | Cc1ccc(C2=N/C(=C/c3cccs3)C(=O)N2Nc2ccccc2)cc1 | inactive | –
18 | COc1ccc(-n2cc(-c3ccc(OC)c(OC)c3)[nH]c2=S)cc1 | inactive | –
19 | COc1ccc2nc(C)cc(SCC(=O)N/N=C/c3ccc(O)cc3O)c2c1 | inactive | –
20 | CC1Cc2ccccc2N1C(=O)CSc1nnnn1-c1ccc2c(c1)OCCO2 (centres undefined) | inactive | –
21 | CCOC(=O)c1ccc(NC(=O)CSCCC(=O)O)cc1 | inactive | –
22 | CCCCC(C(=O)OCC)C(N)Cc1ccc(F)cc1 (centres undefined) | – | outcome: inactive
23 | Cc1ccc(-c2cc(-c3ccccc3)c(C#N)c(N)n2)o1 | inactive | –
24 | O=C(NCCCO)Nc1ccc2nc(-c3ccco3)c(-c3ccco3)nc2c1 | inactive | –
25 | COc1ccc(NC(=O)c2c(F)cccc2F)cc1S(=O)(=O)Nc1ccc(Br)cc1 | inactive | –
26 | COc1ccc(N2CCN(C(CNS(=O)(=O)c3ccc4c(c3)OCCO4)c3ccco3)CC2)cc1 (centres undefined) | – | outcome: inactive

Row | SMILES | inhibition | also measured
27 | COc1ccccc1-n1c(-c2ccc(Cl)cc2)c[nH]c1=S | inactive | –
28 | CN1N=C(C(=O)N2CCCC(C(=O)c3cccc(C(F)(F)F)c3)C2)CCC1=O (centres undefined) | inactive | –
29 | O=C(Nc1ccccc1)c1ccc2nc(-c3ccco3)c(-c3ccco3)nc2c1 | inactive | –
30 | Clc1ccc(N=c2ssnc2Cl)nc1 | – | outcome: inactive
31 | COc1ccc(N2C(=O)/C(=C/c3cccs3)NC2=S)cc1 | inactive | –
32 | CCc1nnc(NC(=O)CSc2nnc(COc3ccc(C)cc3)n2-c2ccccc2)s1 | inactive | –
33 | Cc1noc(C)c1CN1C(=O)NC(Cc2ccccc2)(Cc2ccccc2)C1=O | inactive | –
34 | COCCn1nnnc1CN(Cc1ccco1)Cc1cc2cc3c(cc2[nH]c1=O)OCO3 | inactive | –
35 | CCOc1ccc(C(=O)Nc2nnc(NC(=S)Nc3ccccc3)s2)cc1 | inactive | –
36 | O=C(Nc1ccc(Cl)cn1)Nc1ccccc1F | inactive | –
37 | O=C1C(=O)c2ccc(-c3ccccc3)cc2-c2ccccc21 | inactive | –
38 | Cc1ccc(S(=O)(=O)N(C)CC(=O)N2CCc3ccccc32)cc1 | inactive | –
39 | Cc1cc(C)c(S(=O)(=O)/N=C2/C=C(SCC(=O)O)C(=O)c3ccccc32)cc1C | inactive | –
40 | Cc1ccc(/C=C/C2=Cc3c(sc(NC(=O)CSc4n[nH]c(N)n4)c3C#N)C(C)(C)C2)o1 | inactive | –
41 | CSc1ccccc1NC(=O)CN(C)CC(=O)Nc1ccc(N2CCOCC2)cc1 | – | outcome: inactive
42 | CCOC(=O)C1CCN(C(=O)Nc2ccc3nc(-c4ccco4)c(-c4ccco4)nc3c2)CC1 | inactive | –
43 | Cc1onc(-c2ccccc2)c1C(=O)Nc1nnc(COc2ccc(Cl)cc2)s1 | inactive | –
44 | COc1ccc(C2C(C#N)=C(C)NC3=C2S(=O)(=O)c2ccccc23)cc1 (centres undefined) | inactive | –
45 | Cc1ccc(-c2c3c([nH]c(=S)c2C#N)CCCC3)o1 | inactive | –
46 | O=C(CSc1nnc(-c2cccs2)n1Cc1ccco1)c1ccc2c(c1)OCO2 | inactive | –
47 | CCOc1ccc(NCc2ccccc2OCc2cccc(F)c2)cc1 | inactive | –
48 | CC(=O)Nc1ccc2nc(CN3CCN(CC(C)C)C(CCO)C3)ccc2c1 (centres undefined) | – | outcome: inactive
49 | CC(C)n1nnnc1SCC(=O)N1CCN(C(=O)c2ccco2)CC1 | inactive | –
50 | COc1cccc2c(SCC(=O)N/N=C/c3ccccc3)cc(C)nc12 | inactive | –
51 | COc1ccc(NC(=O)c2cccs2)cc1 | inactive | –
52 | CCN1CCN(c2cc(C)c3cc(NC(=S)N4CCN(c5ccccc5)CC4)ccc3n2)CC1 | inactive | –

Row | SMILES | inhibition | also measured
53 | CCOc1cc(C2Nc3cccc4cccc(c34)N2)ccc1O | inactive | –
54 | COC(=O)CSc1nccc(-c2cccs2)n1 | – | outcome: inactive
55 | COc1cc(/C=N/Nc2nn3cnnc3c3ccccc23)ccc1O | – | EC50: inactive
56 | CCSc1ncnc2sc(C)c(C)c12 | – | outcome: inactive
57 | Cc1cc(C)c2c(N)c3cccc(C)c3nc2n1 | inactive | –
58 | C=CCN1C(=O)/C(=C/c2ccsc2)SC1=S | – | outcome: inactive
59 | COC(=O)Cc1cc(=O)[nH]c(Nc2nc3ccccc3o2)n1 | inactive | –
60 | COC(=O)CSc1ncnc2c1sc1nc(-c3ccco3)c3c(c12)CC(C)(C)OC3 | inactive | –
61 | Cc1cccc(-n2c(-c3ccncc3)n[nH]c2=S)c1 | inactive | –
62 | OC(COc1ccc2cc(Br)ccc2c1)CN1CCOCC1 (centres undefined) | inactive | –
63 | Cc1ccccc1-n1c(SCc2cccc(F)c2)nc2[nH]ncc2c1=O | – | outcome: inactive
64 | COc1ccc(-n2c(SCC(=O)Nc3ccc(C(=O)O)cc3)nnc2-c2cccs2)cc1 | inactive | –
65 | CC(C)COC(=O)/C(C#N)=C/c1cn(Cc2ccccc2)c2ccccc12 | inactive | –
66 | CCOC(=O)CCCNC(=O)c1cncc(O)c1 | inactive | –
67 | CCOC(=O)/C(=C\c1ccc(Cl)cc1)c1nc2sc(C)c(C)c2c(=O)[nH]1 | inactive | –
68 | Cc1nnc(NCc2n[nH]c(=O)c3ccccc23)c2ccccc12 | inactive | –
69 | FC(F)(F)c1ccc2c(c1)C1C=CCC1C(c1ccncc1)N2 (centres undefined) | – | outcome: inactive
70 | CC1CCN(C2(O)C(=O)Nc3ccc(Br)cc32)CC1 (centres undefined) | – | outcome: inactive
71 | O=C(OCc1cnc(Cl)s1)c1cccc(Cl)c1Cl | inactive | –
72 | CCOc1ccc(C2=Nn3c(nnc3-c3ccco3)SC2)cc1 | inactive | –
73 | OCCC1CN(Cc2nc3c(s2)CCCC3)CCN1Cc1ccsc1 (centres undefined) | inactive | –
74 | COc1ccc(C2(NC(C)=O)CCN(C(=O)c3ccco3)CC2)cc1 | inactive | –
75 | COC(=O)/C(=C/c1ccc(F)cc1)NC(C)=O | inactive | –
76 | CN=c1scc(-c2cccs2)n1/N=C/c1ccc(O)c(O)c1O | inactive | –
77 | COc1cccc(N2CC(C(=O)Nc3nnc(SCC(=O)c4ccccc4)s3)CC2=O)c1 (centres undefined) | inactive | –
78 | CCOC(=O)c1sc(NC(=O)c2ccncc2)c(C#N)c1C | inactive | –

Row | SMILES | inhibition | also measured
79 | CS(=O)(=O)NN1C(=O)c2ccccc2NC1c1cccc2cccnc12 (centres undefined) | inactive | –
80 | O=C(NC1=C(NC2CCS(=O)(=O)C2)C(=O)c2ccccc2C1=O)c1ccccc1 (centres undefined) | inactive | –
81 | O=[N+]([O-])c1ccc2[nH]nc(-c3ccccc3)c2c1 | – | outcome: inactive
82 | Cc1ccc(-c2nc(N3CCOCC3)s[n+]2-c2ccccc2)cc1 | inactive | –
83 | CNC(=S)N/N=C/C1=CCC2CC1C2(C)C (centres undefined) | inactive | –
84 | CCN=c1scc(C)n1/N=C/c1ccc(O)c(O)c1O | inactive | –
85 | c1ccc(Nc2nc(-c3ccncc3)cs2)cc1 | inactive | –
86 | Cc1cc(C)cc(-n2c(C)nc3cc(C(=O)O)ccc32)c1 | inactive | –
87 | Cc1ccc(-c2cc(-c3ccccc3Cl)c(C#N)c(N)n2)o1 | inactive | –
88 | O=C(N/N=C/c1ccc(O)c(O)c1O)/C(=C/c1ccc([N+](=O)[O-])cc1)NC(=O)c1ccccc1 | inactive | –
89 | N=C1C(c2nc3ccccc3s2)=C(O)CN1Cc1ccccc1 | inactive | –
90 | Cc1cc(C)c2nc3nc(C)cc(C)c3c(N)c2c1 | inactive | –
91 | COc1ccc2nc(-c3ccco3)c(-c3ccco3)nc2c1 | inactive | –
92 | N#C/C(=C(/O)CN1CCN(c2ccccc2F)CC1)c1nc(-c2ccccc2)cs1 | inactive | –
93 | C=CS(=O)c1sc(Cl)c(N2CCOCC2)c1[N+](=O)[O-] (centres undefined) | – | outcome: inactive
94 | Cc1ccc(-c2cc(-c3ccc(Cl)cc3)c(C#N)c(N)n2)o1 | inactive | –
95 | COC(=O)c1cccc(-n2c(C)cc(C=O)c2C)c1 | – | outcome: inactive
96 | Cc1ccc(/C=C2/NC(=O)N(Cc3ccc(Br)cc3)C2=O)o1 | inactive | –
97 | CCOC(=O)C1=C(Cc2ccc(OC)cc2)C(=O)c2ccccc2C1=O | inactive | –
98 | CCOc1ccc(CNc2ccc(N3CCCC3)cc2)cc1 | inactive | –
99 | CC(C)CCN1CCN(Cc2cccc3cccnc23)CC1CCO (centres undefined) | – | outcome: inactive
100 | CCN1CCN(c2cc(C)c3cc(NC(=S)N4CC(C)CC(C)C4)ccc3n2)CC1 (centres undefined) | inactive | –
101 | Fc1ccccc1/C=C1\CCCC2=C1NC(=S)NC2c1ccccc1F (centres undefined) | inactive | –
102 | Cc1ccc(N=C2NC(=O)/C(=C/C=C/c3ccco3)S2)cc1 | inactive | –
103 | COc1ccc(C2CC(=O)C3=C(C2)Nc2ccccc2NC3c2coc3ccccc3c2=O)cc1OC (centres undefined) | inactive | –
104 | COc1cc(/C=N/Nc2nc3c(c(=O)n(C)c(=O)n3C)n2Cc2ccccc2)ccc1OC(=O)c1ccco1 | – | outcome: inactive
